Data reported in patent publication US20240190865A1, “T-TYPE CALCIUM CHANNEL ANTAGONISTS AND USES THEREOF” (THE BOARD OF TRUSTEES OF THE LELAND STANFORD JUNIOR …, priority 2021, published 2024).

Key:
Miro1 [1] = experiment: Miro1 reduction after compound administration, Western blot; type: cell-based; details: Western blot method
Miro1 [2] = experiment: Miro1 fibroblast assay (CCCP challenge, Miro1 Western blot); type: cell-based; details: skin fibroblasts from human Parkinson's disease patients, CCCP 40 μM 24 hr; read-out: Fibroblast IC50 (nM), Miro1 reduction
Procedure: Fibroblast Challenge and Miro1 Western blot: Skin fibroblasts were obtained from human Parkinson's disease (PD) patients. CCCP was applied at 40 μM for 24 hr to fibroblasts before cells were lysed in RIPA lysis buffer with 0.25 mM PMSF and protease inhibitors. Lysates were cleared by centrifugation at 17,000×g for 10 min at 4° C., and supernatants were run in an SDS-PAGE for Western blotting. After electrophoresis, nitrocellulose membranes (Bio-Rad) were used in wet transfer. Transferred membranes were first blocked for 1 hr in phosphate-buffered saline (PBS) containing 5% fat-free milk and 0.1% tween-20, and then incubated with the following primary antibodies: rabbit anti-Miro1 (HPA010687, Sigma-Aldrich) at 1:1,000, mouse anti-ATP50 (AB14730, Abcam) at 1:5,000, mouse anti-β-Actin (A00702, Genscript) at 1:3,000, or rabbit anti-VDAC (4661S, Cell Signaling Technology) at 1:1,000 at 4° C. overnight in blocking buffer. West Dura ECL reagents (GE Healthcare) were used for ECL immunoblotting with HRP-conjugated goat anti-mouse or anti-rabbit, anti-mouse IgG (Jackson ImmunoResearch Laboratories) at 1:5-10,000. Membranes were exposed to UltraCruz autoradiography films (Santa Cruz Biotechnology) and developed on a Konica Minolta SRX-101A developer.
T-type calcium channel antagonists that could reduce Miro1 level were tested in the above PD fibroblast assay.

mutant SNCA flies = experiment: Parkinson's disease fly model, locomotion (negative geotaxis Performance Index); type: in vivo; details: PD fly model (mutant SNCA flies), 2.5 μM in feed for 10 days
Procedure: The Parkinson's disease (PD) fly model was used as described in Hsieh C-H, Li L, Vanhauwaert R, Nguyen KT, Davis M D, Bu G, et al. Miro1 Marks Parkinson's Disease Subset and Miro1 Reducer Rescues Neuron Loss in Parkinson's Models. Cell Metab. 2019; 1131-1140. The average Performance Index (PI) (negative geotaxis) was evaluated. Briefly, adult flies were gently tapped to the base of a modified 25 ml climbing tube and their climbing progress was recorded after 45 sec. Three populations of flies were assessed, and for each population, flies were examined 3 times per experiment. The recorded values were used to calculate the average PI.
Feeding PD Flies with a Calcium Channel Blocker Rescues Locomotion Deficits. Benidipine was tested in a PD fly model (mutant SNCA flies) and the flies examined for their locomotion.

Cav3.2 = Cav3.2 (Homo sapiens (Human), UniProt O95180); experiment: In vitro patch clamp assay (SyncroPatch 384PE); type: cell-based; details: HEK293 cells
Procedure: Patch clamp assays were performed at Charles River. HEK293 cells were cultured in Dulbecco's Modified Eagle Medium/Nutrient Mixture F-12 (D-MEM/F-12) supplemented with 10% fetal bovine serum, 100 U/mL penicillin G sodium, 100 μg/mL streptomycin sulfate and 500 μg/mL G418. Before testing, cells in culture dishes were washed twice with Hank's Balanced Salt Solution, treated with Accutase™ and re-suspended in the culture media (˜20×10^6 cells in 20 mL). Cells in suspension were allowed to recover for 10 minutes in tissue culture incubator set at 37° C. in a humidified 95% air: 5% CO2 atmosphere. Immediately before use in the SyncroPatch 384PE system (SP384PE), the cells were washed twice in extracellular buffer (HB-PS) to remove the culture medium and re-suspended in 20 mL of HB-PS. Extracellular buffer was loaded into the wells of Nanion 384-well Patch Clamp (NPC-384, 4×M) chip (60 μL per well). Then, cell suspension was pipetted into the wells (20 μL per well) of the chip. After establishment of the whole-cell configuration, membrane currents were recorded using patch clamp amplifier in the SP384PE system.

Cav3.2, sequence (O95180 whole entry): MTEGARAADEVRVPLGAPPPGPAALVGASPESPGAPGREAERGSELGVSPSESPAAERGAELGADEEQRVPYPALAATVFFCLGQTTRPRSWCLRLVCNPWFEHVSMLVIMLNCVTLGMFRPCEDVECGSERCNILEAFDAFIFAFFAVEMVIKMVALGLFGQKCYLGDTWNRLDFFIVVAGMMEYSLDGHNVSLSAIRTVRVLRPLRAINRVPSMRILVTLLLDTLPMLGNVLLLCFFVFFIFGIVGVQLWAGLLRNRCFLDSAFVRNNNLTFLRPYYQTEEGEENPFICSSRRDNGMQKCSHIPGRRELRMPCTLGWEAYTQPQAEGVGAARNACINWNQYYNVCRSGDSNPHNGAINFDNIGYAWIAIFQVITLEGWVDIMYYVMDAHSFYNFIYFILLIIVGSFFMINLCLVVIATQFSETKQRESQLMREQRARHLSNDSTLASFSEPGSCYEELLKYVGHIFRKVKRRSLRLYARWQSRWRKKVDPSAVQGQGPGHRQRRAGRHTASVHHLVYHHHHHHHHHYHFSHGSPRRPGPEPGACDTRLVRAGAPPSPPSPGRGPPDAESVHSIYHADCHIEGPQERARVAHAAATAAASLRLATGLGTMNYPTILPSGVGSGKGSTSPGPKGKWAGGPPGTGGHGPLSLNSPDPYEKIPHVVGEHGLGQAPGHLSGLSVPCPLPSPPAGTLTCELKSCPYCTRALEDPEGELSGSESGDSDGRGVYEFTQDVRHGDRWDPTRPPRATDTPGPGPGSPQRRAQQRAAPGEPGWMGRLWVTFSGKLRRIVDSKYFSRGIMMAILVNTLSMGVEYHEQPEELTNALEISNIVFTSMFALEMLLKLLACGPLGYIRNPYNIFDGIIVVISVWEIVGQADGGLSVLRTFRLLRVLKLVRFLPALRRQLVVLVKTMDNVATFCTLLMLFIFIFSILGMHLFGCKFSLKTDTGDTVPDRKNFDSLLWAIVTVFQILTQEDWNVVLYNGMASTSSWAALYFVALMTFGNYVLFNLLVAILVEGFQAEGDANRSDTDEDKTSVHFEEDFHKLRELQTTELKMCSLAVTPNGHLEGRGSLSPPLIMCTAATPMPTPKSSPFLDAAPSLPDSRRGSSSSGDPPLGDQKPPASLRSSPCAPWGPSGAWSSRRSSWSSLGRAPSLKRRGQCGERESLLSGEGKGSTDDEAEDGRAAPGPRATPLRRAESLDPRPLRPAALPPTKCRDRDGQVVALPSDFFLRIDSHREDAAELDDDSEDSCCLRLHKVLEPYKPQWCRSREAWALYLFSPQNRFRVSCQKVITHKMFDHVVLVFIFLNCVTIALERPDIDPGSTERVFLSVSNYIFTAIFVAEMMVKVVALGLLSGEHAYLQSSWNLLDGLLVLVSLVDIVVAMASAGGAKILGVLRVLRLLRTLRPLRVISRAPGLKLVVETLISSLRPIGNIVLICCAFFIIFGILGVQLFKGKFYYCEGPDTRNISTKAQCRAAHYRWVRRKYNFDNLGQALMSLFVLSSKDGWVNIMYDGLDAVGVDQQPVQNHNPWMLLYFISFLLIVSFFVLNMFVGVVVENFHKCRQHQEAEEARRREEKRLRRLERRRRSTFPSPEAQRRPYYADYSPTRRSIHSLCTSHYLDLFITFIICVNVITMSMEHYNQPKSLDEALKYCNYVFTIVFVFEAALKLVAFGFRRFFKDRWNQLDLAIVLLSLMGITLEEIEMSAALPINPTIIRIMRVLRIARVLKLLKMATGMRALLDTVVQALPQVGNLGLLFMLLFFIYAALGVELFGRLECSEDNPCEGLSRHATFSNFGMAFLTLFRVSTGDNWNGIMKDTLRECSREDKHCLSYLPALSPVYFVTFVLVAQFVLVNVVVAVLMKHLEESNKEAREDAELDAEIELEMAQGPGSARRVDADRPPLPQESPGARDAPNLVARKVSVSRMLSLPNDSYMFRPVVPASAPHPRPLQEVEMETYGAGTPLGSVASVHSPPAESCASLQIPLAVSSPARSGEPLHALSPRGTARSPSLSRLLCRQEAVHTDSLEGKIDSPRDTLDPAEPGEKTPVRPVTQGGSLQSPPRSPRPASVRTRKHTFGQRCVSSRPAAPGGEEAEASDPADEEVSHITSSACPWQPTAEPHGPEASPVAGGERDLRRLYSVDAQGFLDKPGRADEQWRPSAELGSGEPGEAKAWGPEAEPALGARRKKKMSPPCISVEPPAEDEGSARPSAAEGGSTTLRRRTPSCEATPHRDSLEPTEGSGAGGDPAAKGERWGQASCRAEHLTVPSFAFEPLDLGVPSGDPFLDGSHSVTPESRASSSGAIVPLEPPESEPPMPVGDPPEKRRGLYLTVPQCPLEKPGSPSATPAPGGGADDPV

SMILES: CC(C)c1ccc(CC(=O)N[C@H](C)c2ccc(OCC(F)(F)F)cn2)cc1 [MK-8998, (R)-2-(4-Isopropylphenyl)-N-(1-(5-(2,2,2-trifluoroethoxy)pyridin-2-yl)ethyl)acetamide]
- Miro1 Lowering (Miro1 [1]): YES
- IC50 (Miro1 [2]): 693 nM

SMILES: O=C(c1cc(S(=O)(=O)Nc2ccccc2F)c(F)cc1Cl)N1CCN2CCC[C@@H]2C1 [ABT-639, 5-[(8aR)-3,4,6,7,8,8a-hexahydro-1H-pyrrolo[1,2-a]pyrazine-2-carbonyl]-4-chloro-2-fluoro-N-(2-fluorophenyl)benzenesulfonamide]
- Miro1 Lowering (Miro1 [1]): YES
- IC50 (Miro1 [2]): 5410 nM

SMILES: N#Cc1ccc(Cn2ccc(NC(=O)Cc3ccc(C4(C(F)(F)F)CC4)cc3)n2)nc1 [ACT-709478, N-(1-((5-cyanopyridin-2-yl)methyl)-1H-pyrazol-3-yl)-2-(4-(1-(trifluoromethyl)cyclopropyl)phenyl)acetamide]
- Miro1 Lowering (Miro1 [1]): YES
- IC50 (Miro1 [2]): 3930 nM

SMILES: COC(=O)C1=C(C)NC(C)=C(C(=O)OC2CCCN(Cc3ccccc3)C2)C1c1cccc([N+](=O)[O-])c1 (centres unmarked) [Benidipine, 1,4-dihydro-2,6-dimethyl-4-(3-nitrophenyl)-3,5-pyridine-dicarboxylic acid methyl 1-(phenylmethyl)-3-piperidinyl ester]
- Miro1 Lowering (Miro1 [1]): YES
- IC50 (Miro1 [2]): 2560 nM
- locomotor decline / locomotion deficits (mutant SNCA flies): significantly improved locomotor decline
- locomotor decline / locomotion deficits (mutant SNCA flies; listed as benidipine): rescuing locomotor deficits

SMILES: C[C@@H](NC(=O)Cc1ccc(C2(F)CC2)cc1)c1cc2cnn(CC(F)(F)F)c2cn1 [Example 29, (R)-2-(4-(1-fluorocyclopropyl)phenyl)-N-(1-(1-(2,2,2-trifluoroethyl)-1H-pyrazolo[3,4-c]pyridin-5-yl)ethyl)acetamide]
- IC50 (Cav3.2): 533 nM

SMILES: CC(C)c1ccc(CC(=O)N[C@H](C)c2cc3cnn(CC(F)(F)F)c3cn2)cc1 [Example 9, (R)-2-(4-isopropylphenyl)-N-(1-(1-(2,2,2-trifluoroethyl)-1H-pyrazolo[3,4-c]pyridin-5-yl)ethyl)acetamide]
- IC50 (Cav3.2): 44 nM

SMILES: NS(=O)(=O)Cc1noc2ccccc12 [Zonisamide, 1,2-benzisoxazole-3-methanesulfonamide]
- Miro1 Lowering (Miro1 [1]): YES

SMILES: CC(C)c1ccc(CC(=O)N[C@H](C)c2cc3c(cn2)OC(F)(F)O3)cc1 [Example 57, (R)—N-(1-(2,2-difluoro-[1,3]dioxolo[4,5-c]pyridin-6-yl)ethyl)-2-(4-isopropylphenyl)acetamide]
- IC50 (Cav3.2): 868 nM

SMILES: C[C@@H](NC(=O)Cc1ccc(C(C)(F)F)c(C#N)c1)c1cc2cnn(CC(F)(F)F)c2cn1 [Example 52, (R)-2-(3-cyano-4-(1,1-difluoroethyl)phenyl)-N-(1-(1-(2,2,2-trifluoroethyl)-1H-pyrazolo[3,4-c]pyridin-5-yl)ethyl)acetamide]
- IC50 (Cav3.2): 389 nM

SMILES: C[C@@H](NC(=O)Cc1ccc(C(F)(F)F)c(Cl)c1)c1cc2cnn(CC(F)(F)F)c2cn1 [Example 43, (R)-2-(3-chloro-4-(trifluoromethyl)phenyl)-N-(1-(1-(2,2,2-trifluoroethyl)-1H-pyrazolo[3,4-c]pyridin-5-yl)ethyl)acetamide]
- IC50 (Cav3.2): 214 nM

SMILES: C[C@@H](NC(=O)Cc1cnc(C2CC2)c(F)c1)c1cc2cnn(CC(F)(F)F)c2cn1 [Example 39, (R)-2-(6-cyclopropyl-5-fluoropyridin-3-yl)-N-(1-(1-(2,2,2-trifluoroethyl)-1H-pyrazolo[3,4-c]pyridin-5-yl)ethyl)acetamide]
- IC50 (Cav3.2): 519 nM

SMILES: C[C@@H](NC(=O)Cc1ccc(C(C)(F)F)c(F)c1)c1cc2cnn(CC(F)(F)F)c2cn1 [Example 38, (R)-2-(4-(1,1-difluoroethyl)-3-fluorophenyl)-N-(1-(1-(2,2,2-trifluoroethyl)-1H-pyrazolo[3,4-c]pyridin-5-yl)ethyl)acetamide]
- IC50 (Cav3.2): 123 nM

SMILES: C[C@@H](NC(=O)Cc1ccc(C2(C(F)F)CC2)nc1)c1cc2cnn(CC(F)(F)F)c2cn1 [Example 21, (R)-2-(6-(1-(difluoromethyl)cyclopropyl)pyridin-3-yl)-N-(1-(1-(2,2,2-trifluoroethyl)-1H-pyrazolo[3,4-c]pyridin-5-yl)ethyl)acetamide]
- IC50 (Cav3.2): 637 nM

SMILES: C[C@@H](NC(=O)Cc1ccc(C2(C(F)(F)F)CC2)nc1)c1ccc(OCC(F)(F)F)cn1 [Example 59, (R)—N-(1-(5-(2,2,2-trifluoroethoxy)pyridin-2-yl)ethyl)-2-(6-(1-(trifluoromethyl)cyclopropyl)pyridin-3-yl)acetamide]
- IC50 (Cav3.2): 97 nM

SMILES: CCCn1cc2cc([C@@H](C)NC(=O)Cc3ccc(C(C)C)cc3)ncc2n1 [Example 11, (R)-2-(4-isopropylphenyl)-N-(1-(2-propyl-2H-pyrazolo[3,4-c]pyridin-5-yl)ethyl)acetamide]
- IC50 (Cav3.2): 2420 nM

SMILES: CC(C)c1ccc(CC(=O)N[C@H](C)c2cc3cnn(CC4(F)CC4)c3cn2)cc1 [Example 18, (R)—N-(1-(1-((1-fluorocyclopropyl)methyl)-1H-pyrazolo[3,4-c]pyridin-5-yl)ethyl)-2-(4-isopropylphenyl)acetamide]
- IC50 (Cav3.2): 343 nM

SMILES: Cc1c(C#N)c2cc(CC(=O)N[C@H](C)c3cc4cnn(CC(F)(F)F)c4cn3)ccc2n1C [Example 54, (R)-2-(3-cyano-1,2-dimethyl-1H-indol-5-yl)-N-(1-(1-(2,2,2-trifluoroethyl)-1H-pyrazolo[3,4-c]pyridin-5-yl)ethyl)acetamide]
- IC50 (Cav3.2): 529 nM
